Source: PMC2962730 (Journal of neurochemistry, 2010)
Where a chain is given by its changes, count along the chain named.

What was measured:
hVAChT wild-type [1] = biological target: T1, hVAChT wild-type (Homo sapiens, UniProt Q16572); experiment: [3H]ACh transport; type: biochemical; settings: WT hVAChT, pH 7.4
T1 sequence (Q16572 1-532): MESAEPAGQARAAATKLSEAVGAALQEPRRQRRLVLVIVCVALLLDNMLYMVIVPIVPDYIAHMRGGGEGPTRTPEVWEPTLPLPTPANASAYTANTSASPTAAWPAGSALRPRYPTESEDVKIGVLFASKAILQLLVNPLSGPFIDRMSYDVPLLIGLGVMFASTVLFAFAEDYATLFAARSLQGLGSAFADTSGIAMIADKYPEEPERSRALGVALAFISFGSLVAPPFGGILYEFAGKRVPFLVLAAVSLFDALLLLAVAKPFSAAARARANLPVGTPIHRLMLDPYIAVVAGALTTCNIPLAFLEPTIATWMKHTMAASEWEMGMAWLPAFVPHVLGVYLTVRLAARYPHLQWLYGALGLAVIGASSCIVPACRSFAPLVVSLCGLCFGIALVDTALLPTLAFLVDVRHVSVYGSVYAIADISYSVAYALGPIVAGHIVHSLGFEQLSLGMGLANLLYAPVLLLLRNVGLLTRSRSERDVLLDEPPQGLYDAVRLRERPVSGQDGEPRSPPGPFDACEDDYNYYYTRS

hVAChT A330V = biological target: T2, hVAChT A330V (Homo sapiens, UniProt Q16572, A330V); experiment: ACh equilibrium binding by competition against [3H]vesamicol
T2 sequence (Q16572 1-532 A330V): T1 sequence (Q16572 1-532) with A330V

hVAChT C388A = biological target: T3, hVAChT C388A (Homo sapiens, UniProt Q16572, C388A); experiment: [3H]ACh transport; type: biochemical
T3 sequence (Q16572 1-532 C388A): T1 sequence (Q16572 1-532) with C388A

hVAChT wild-type [2] = biological target: T1, hVAChT wild-type; experiment: [3H]vesamicol saturation binding; settings: WT hVAChT; pH 7.4; per mg postnuclear supernatant
hVAChT W325H = biological target: T4, hVAChT W325H (Homo sapiens, UniProt Q16572, W325H); experiment: [3H]vesamicol saturation binding; settings: pH 7.4
T4 sequence (Q16572 1-532 W325H): T1 sequence (Q16572 1-532) with W325H

hVAChT W325F = biological target: T5, hVAChT W325F (Homo sapiens, UniProt Q16572, W325F); experiment: [3H]vesamicol saturation binding; settings: pH 7.4
T5 sequence (Q16572 1-532 W325F): T1 sequence (Q16572 1-532) with W325F

Row | Structure (SMILES) | Vmax/Bmax, ACh transport normalized to Bmax (hVAChT wild-type [1]) | Km (hVAChT wild-type [1]; read-out: KM, Michaelis-Menten constant for ACh transport) | Kd (hVAChT A330V) | decrease in the fraction of high-affinity binding by ACh (hVAChT A330V; A330V hVAChT vs wild-type) | FHA, fraction of the ACh sites that have high affinity (hVAChT A330V; A330V hVAChT, pH 7.4) | Vmax/Bmax, ACh transport normalized to Bmax (hVAChT C388A; pH 7.4) | Km (hVAChT C388A; read-out: KM, Michaelis-Menten constant for ACh transport, pH 7.4) | Bmax, maximal specific [3H]vesamicol binding (VAChT expression level) (hVAChT wild-type [2]) | Bmax, maximal specific [3H]vesamicol binding (VAChT expression level) (hVAChT W325H) | Bmax, maximal specific [3H]vesamicol binding (VAChT expression level) (hVAChT W325F)
1 | CC(=O)OCC[N+](C)(C)C [ACh, acetylcholine] | 6.8 ± 0.5 min⁻¹ | 950 ± 200 µM | 12 ± 5 mM | 2 fold | 0.44 ± 0.11 | 12 ± 1 min⁻¹ | 2300 ± 500 µM | – | – | –
2 | O[C@@H]1CCCC[C@H]1N1CCC(c2ccccc2)CC1 (racemic) [vesamicol, ( )-trans-2-(4-phenylpiperidino)cyclohexanol] | – | – | – | – | – | – | – | 50 ± 1 pmol/mg | 22 ± 1 pmol/mg | 75 ± 3 pmol/mg
